Toxic doses and inconclusive results are not listed. How the source made its calls: active means survival T/C of 150% or more; inactive means T/C below 125% in these data.
System: CD2F1 mice, L1210 leukemia ip, survival T/C
Assay: NCI In Vivo Anticancer Drug Screen. Data for tumor model L1210 Leukemia (intraperitoneal) in CD2F1 (CDF1) mice
Conditions: higher = longer survival
In short: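 Implant tumor; dose compound or vehicle; measure endpoint in both groups; report treated divided by control.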

[1] = endpoint: mean survival time, dose: 100.0 mg/kg/injection, schedule: Q04DX002 (ip), vehicle: saline with Tween-80
[2] = endpoint: mean survival time, dose: 200.0 mg/kg/injection, schedule: Q04DX002 (ip), vehicle: saline with Tween-80
[3] = endpoint: mean survival time, dose: 50.0 mg/kg/injection, schedule: Q01DX009 (ip), vehicle: saline with Tween-80
[4] = endpoint: mean survival time, dose: 100.0 mg/kg/injection, schedule: Q01DX001 (ip), vehicle: saline with Tween-80
[5] = endpoint: mean survival time, dose: 100.0 mg/kg/injection, schedule: Q01DX009 (ip), vehicle: saline with Tween-80
[6] = endpoint: mean survival time, dose: 200.0 mg/kg/injection, schedule: Q01DX001 (ip), vehicle: saline with Tween-80
[7] = endpoint: mean survival time, dose: 200.0 mg/kg/injection, schedule: Q01DX009 (ip), vehicle: saline with Tween-80
[8] = endpoint: mean survival time, dose: 400.0 mg/kg/injection, schedule: Q01DX009 (ip), vehicle: saline with Tween-80

Measured: T/C

CC[C@]12CN3CCc4c([nH]c5ccccc45)[C@@](C(=O)OC)(c4cc5c(cc4OC)N(C)[C@H]4[C@@](O)(C(=O)OC)[C@H](OC(C)=O)[C@]6(CC)C=CCN7CC[C@]54[C@@H]76)CC(C3)[C@H]1O2 (some centres not stated)
inactive: endpoint: mean survival time, dose: 1.5 mg/kg/injection, schedule: Q01DX009 (ip), vehicle: Klucel (hydroxypropylcellulose) (HPC) 106 % of control | endpoint: mean survival time, dose: 3.0 mg/kg/injection, schedule: Q01DX009 (ip), vehicle: Klucel (hydroxypropylcellulose) (HPC) 108 % of control | endpoint: mean survival time, dose: 6.0 mg/kg/injection, schedule: Q01DX009 (ip), vehicle: Klucel (hydroxypropylcellulose) (HPC) 110 % of control | endpoint: mean survival time, dose: 6.25 mg/kg/injection, schedule: Q04DX003 (ip), vehicle: saline 111 % of control | endpoint: mean survival time, dose: 12.0 mg/kg/injection, schedule: Q01DX009 (ip), vehicle: Klucel (hydroxypropylcellulose) (HPC) 112 % of control | endpoint: mean survival time, dose: 12.5 mg/kg/injection, schedule: Q04DX003 (ip), vehicle: saline 120 % of control | endpoint: median survival time, dose: 1.0 mg/kg/injection, schedule: Q03HX008 (ip), vehicle: saline 100 % of control | endpoint: median survival time, dose: 1.0 mg/kg/injection, schedule: Q03HX016 (ip), vehicle: saline 100 % of control | endpoint: median survival time, dose: 1.0 mg/kg/injection, schedule: Q03HX024 (ip), vehicle: saline 100 % of control | endpoint: median survival time, dose: 2.0 mg/kg/injection, schedule: Q03HX008 (ip), vehicle: saline 110 % of control | endpoint: median survival time, dose: 2.0 mg/kg/injection, schedule: Q03HX016 (ip), vehicle: saline 120 % of control | endpoint: median survival time, dose: 2.0 mg/kg/injection, schedule: Q03HX024 (ip), vehicle: saline 120 % of control | endpoint: median survival time, dose: 4.0 mg/kg/injection, schedule: Q01DX009 (ip), vehicle: saline 110 % of control | endpoint: median survival time, dose: 4.0 mg/kg/injection, schedule: Q04DX003 (ip), vehicle: saline 100 % of control | endpoint: median survival time, dose: 8.0 mg/kg/injection, schedule: Q01DX001 (ip), vehicle: saline 100 % of control | endpoint: median survival time, dose: 8.0 mg/kg/injection, schedule: Q04DX003 (ip), vehicle: saline 105 % of control | endpoint: median survival time, dose: 8.0 mg/kg/injection, schedule: Q08DX002 (ip), vehicle: saline 115 % of control | endpoint: median survival time, dose: 16.0 mg/kg/injection, schedule: Q01DX001 (ip), vehicle: saline 110 % of control | endpoint: median survival time, dose: 16.0 mg/kg/injection, schedule: Q01DX009 (ip), vehicle: saline 100 % of control | endpoint: median survival time, dose: 16.0 mg/kg/injection, schedule: Q08DX002 (ip), vehicle: saline 110 % of control | endpoint: median survival time, dose: 32.0 mg/kg/injection, schedule: Q01DX001 (ip), vehicle: saline 110 % of control

CC1(C)N=C(N)N=C(N)N1c1ccc(C(C#N)CCCc2ccccc2)cc1 (configuration not stated)
inactive: endpoint: mean survival time, dose: 25.0 mg/kg/injection, schedule: Q01DX009 (ip), vehicle: Klucel (hydroxypropylcellulose) (HPC) 97 % of control | endpoint: mean survival time, dose: 50.0 mg/kg/injection, schedule: Q01DX009 (ip), vehicle: Klucel (hydroxypropylcellulose) (HPC) 101 % of control | endpoint: mean survival time, dose: 100.0 mg/kg/injection, schedule: Q01DX009 (ip), vehicle: Klucel (hydroxypropylcellulose) (HPC) 91 % of control

C1CSCCSCCCSCCSC1
inactive: endpoint: mean survival time, dose: 50.0 mg/kg/injection, schedule: Q04DX002 (ip), vehicle: saline with Tween-80 96 % of control | [1] 108 % of control | [2] 101 % of control

CC(=O)C1=CCC2[C@H]3CC=C4C[C@H](O)CC[C@@]4(C)C3CC[C@@]12C (some centres not stated)
inactive: endpoint: mean survival time, dose: 100.0 mg/kg/injection, schedule: Q04DX003 (ip), vehicle: Klucel (hydroxypropylcellulose) (HPC) 103 % of control | endpoint: mean survival time, dose: 200.0 mg/kg/injection, schedule: Q04DX003 (ip), vehicle: Klucel (hydroxypropylcellulose) (HPC) 103 % of control | endpoint: mean survival time, dose: 400.0 mg/kg/injection, schedule: Q04DX003 (ip), vehicle: Klucel (hydroxypropylcellulose) (HPC) 103 % of control

c1ccc(-c2cc(-c3cc(-c4ccccc4)on3)no2)cc1
inactive: [3] 91 % of control | [4] 101 % of control | [5] 94 % of control | [6] 100 % of control | [7] 96 % of control

O=C(COc1ccc(Cl)c(Cl)c1)Nc1ccc(C(=O)CCl)cc1
inactive: endpoint: mean survival time, dose: 100.0 mg/kg/injection, schedule: Q04DX003 (ip), vehicle: saline with Tween-80 100 % of control | endpoint: mean survival time, dose: 200.0 mg/kg/injection, schedule: Q04DX003 (ip), vehicle: saline with Tween-80 97 % of control | endpoint: mean survival time, dose: 400.0 mg/kg/injection, schedule: Q04DX003 (ip), vehicle: saline with Tween-80 114 % of control

ClC(Cl)=C(c1ccc(Cl)cc1)c1ccc(Cl)cc1
inactive: [5] 103 % of control | [7] 97 % of control | [8] 101 % of control

c1ccc2c(c1)OP(OP1Oc3ccccc3O1)O2
inactive: endpoint: mean survival time, dose: 25.0 mg/kg/injection, schedule: Q01DX009 (ip), vehicle: saline with Tween-80 98 % of control | [3] 98 % of control | [5] 107 % of control | endpoint: mean survival time, dose: 100.0 mg/kg/injection, schedule: Q04DX003 (ip), vehicle: acetone 103 % of control

O=c1cc(Nc2ccc(Br)cc2)[nH]c(=O)[nH]1
inactive: endpoint: mean survival time, dose: 100.0 mg/kg/injection, schedule: Q01DX001 (ip), vehicle: other 92 % of control | endpoint: mean survival time, dose: 200.0 mg/kg/injection, schedule: Q01DX001 (ip), vehicle: other 92 % of control

C#CCN(C)/N=N/c1nc[nH]c1C(N)=O
inactive: endpoint: mean survival time, dose: 12.5 mg/kg/injection, schedule: Q01DX009 (ip), vehicle: Klucel (hydroxypropylcellulose) (HPC) 123 % of control | endpoint: mean survival time, dose: 200.0 mg/kg/injection, schedule: Q01DX009 (ip), vehicle: Klucel (hydroxypropylcellulose) (HPC) 98 % of control

C1CCN(NC2=NCCO2)CC1
inactive: endpoint: mean survival time, dose: 6.25 mg/kg/injection, schedule: Q01DX009 (ip), vehicle: saline 101 % of control | endpoint: mean survival time, dose: 12.5 mg/kg/injection, schedule: Q01DX009 (ip), vehicle: saline 98 % of control | endpoint: mean survival time, dose: 25.0 mg/kg/injection, schedule: Q01DX009 (ip), vehicle: saline 98 % of control

Nc1ccc(C(=O)Nc2cccc(OCc3nc(N)nc(N)c3-c3ccc(Cl)cc3)c2)cc1
inactive: endpoint: mean survival time, dose: 50.0 mg/kg/injection, schedule: Q01DX001 (ip), vehicle: saline with Tween-80 93 % of control | [4] 93 % of control | [6] 93 % of control

O=C(c1ccc([N+](=O)[O-])cc1)C(Br)C(Br)c1ccnc2ccccc12 (configuration not stated)
inactive: endpoint: mean survival time, dose: 12.5 mg/kg/injection, schedule: Q04DX003 (ip), vehicle: saline with Tween-80 92 % of control | endpoint: mean survival time, dose: 25.0 mg/kg/injection, schedule: Q04DX003 (ip), vehicle: saline with Tween-80 98 % of control | endpoint: mean survival time, dose: 50.0 mg/kg/injection, schedule: Q04DX003 (ip), vehicle: saline with Tween-80 95 % of control

CC(=O)CC(C)(C)O
inactive: [5] 95 % of control | endpoint: mean survival time, dose: 100.0 mg/kg/injection, schedule: Q04DX003 (ip), vehicle: saline sonified 102 % of control | [7] 96 % of control | endpoint: mean survival time, dose: 200.0 mg/kg/injection, schedule: Q04DX003 (ip), vehicle: saline sonified 100 % of control | [8] 95 % of control | endpoint: mean survival time, dose: 400.0 mg/kg/injection, schedule: Q04DX003 (ip), vehicle: saline sonified 97 % of control

N#CC(c1cccc([N+](=O)[O-])c1)C(CC(=O)c1ccccc1)c1ccccc1 (configuration not stated)
inactive: [1] 95 % of control | [2] 95 % of control | endpoint: mean survival time, dose: 400.0 mg/kg/injection, schedule: Q04DX002 (ip), vehicle: saline with Tween-80 102 % of control

— PubChem BioAssay AID256 (DTP/NCI, 2004)
